Measured values taken from patent publication US11278624B2, “Formulations” (Arecor Limited, priority 2016, dated 2022).

What was measured:
[1] = 25° C.; as quoted by NIST reference database 46; cited from earlier work
[2] = Size exclusion chromatography main peak of insulin lispro formulations after storage; assay type: physicochemical; settings: insulin lispro 100 U/ml with 0.4 mM EDTA; 30° C. for 4 weeks
[3] = Visual assessment of insulin lispro (100 U/ml) formulations with 0.4 mM EDTA and different surfactants after storage; assay type: physicochemical; settings: insulin lispro 100 U/ml with 0.4 mM EDTA; for effect of surfactant on precipitation: 30° C. for 4 weeks
Procedure: (§1) European Pharmacepoeia Monograph (Particulate Contamination: Visible Particles).
(§2) The presence of any particles is recorded.
The effect of different surfactants was tested on stability of insulin lispro (100 U/ml) in the presence of 0.4 mM EDTA. The visual assessment method described in General Methods was used.

[4] = Visual Assessment Scoring Method B, insulin aspart (100 U/ml) with trisodium citrate, L-histidine or pyrophosphate, storage at 30° C.; assay type: physicochemical
Procedure: as §1, §2
(§3) Visual Assessment Scoring Method B
(§4) Visual score 1: Clear solution, virtually free of particles
(§5) Visual score 2: ˜5 very small particles
(§6) Visual score 3: ˜10-20 very small particles
(§7) Visual score 4: 20-50 particles, including larger particles
(§8) Visual score 5: >50 particles, including larger particles

[5] = Visual Assessment Scoring Method B, insulin lispro (100 U/ml) with citric acid, storage at indicated temperatures; settings: insulin lispro 100 U/ml with citric acid 22 mM
Excerpt: The apparatus required consists of a viewing station comprising: • a matt black panel of appropriate size held in a vertical position • a non-glare white panel of appropriate size held in a vertical position next to the black panel • an adjustable lampholder fitted with a suitable, shaded, white-light source and with a suitable light diffuser (a viewing illuminator containing two 13 W fluorescent tubes, each 525 mm in length, is suitable).
Any adherent labels are removed from the container and the outside washed and dried. The container is gently swirled or inverted, ensuring that air bubbles are not introduced, and observed for about 5 s in front of the white panel. The procedure is repeated in front of the black panel. The presence of any particles is recorded.
Whilst the particles in samples with visual scores 4 and 5 are clearly detectable on casual visual assessment under normal light, samples with visual score 1-3 generally appear as clear solutions on the same assessment. Samples with visual scores 1-3 are considered to be “Pass”; samples with visual score 4-5 are considered to be “Fail”.
Stability of insulin lispro (100 U/ml) was investigated in formulations comprising citric acid (22 mM), both in the presence and in the absence of polysorbate 80.

[6] = Visual Assessment Scoring Method B, insulin aspart (1000 U/ml) with trisodium citrate, L-histidine or pyrophosphate; assay type: physicochemical
Procedure: as §1, §2, §3, §4, §5, §6, §7, §8

[7] = Visual Assessment Scoring Method B, insulin aspart (1000 U/ml) with different concentrations of citric acid and polysorbate 80; assay type: physicochemical; settings: insulin aspart 1000 U/ml with citric acid 44-88 mM
Procedure: as §1, §2, §3, §4, §5, §6, §7, §8
The stability of insulin aspart (1000 U/ml) was investigated in the presence of different concentrations of citric acid and different concentrations of polysorbate 80. […] Three concentrations of citric acid (44, 66 and 88 mM) and four concentrations of each non-ionic surfactant were tested as well as corresponding surfactant-free compositions.

[8] = Visual Assessment Scoring Method A, insulin aspart (100 U/ml) with 22 mM sodium citrate, storage at 30° C.; assay type: physicochemical
Procedure: as §1, §2
Visual Assessment Scoring Method A
Visual score 1: clear solution free of particles
Visual score 2: slight particle formation
Visual score 3: more significant precipitation

Compound: O=C(O)CN(CCN(CC(=O)O)CC(=O)O)CC(=O)O [EDTA, ethylenediaminetetraacetate]
- log K metal binding stability constant with respect to zinc binding [1]: 14.5

Compound: O=C(O)CN(CCOCCOCCN(CC(=O)O)CC(=O)O)CC(=O)O [EGTA, ethyleneglycoltetraacetate]
- log K metal binding stability constant with respect to zinc binding [1]: 12.6

Compound: CCCCCCCCCCCCC[N+](C)(C)Cc1ccccc1 [benzalkonium chloride]
- effect of surfactant on reduction in size of the main peak on SEC and RP-HPLC chromatograms [2]: did not prevent
- effect of surfactant on precipitation [3]: prevented precipitation

Compound: CC(C)(C)CC(C)(C)c1ccc(OCCOCC[N+](C)(C)Cc2ccccc2)cc1 [benzethonium chloride]
- effect of surfactant on reduction in size of the main peak on SEC and RP-HPLC chromatograms [2]: did not prevent
- effect of surfactant on precipitation [3]: prevented precipitation

Compound: O=C(O)CC(O)(CC(=O)O)C(=O)O [citrate]
- log K metal binding stability constant with respect to zinc binding [1]: 4.93

Compound: CCCCCCCCCCCCO[C@@H]1O[C@H](CO)[C@@H](O[C@H]2O[C@H](CO)[C@@H](O)[C@H](O)[C@H]2O)[C@H](O)[C@H]1O [dodecyl maltoside]
- effect of surfactant on reduction in size of the main peak on SEC and RP-HPLC chromatograms [2]: did not prevent
- effect of surfactant on precipitation [3]: prevented precipitation

Compound: N[C@@H](Cc1c[nH]cn1)C(=O)O [histidine]
- log K metal binding stability constant with respect to zinc binding [1]: 6.51

Compound: O=P(O)(O)OP(=O)(O)O [pyrophosphate]
- log K metal binding stability constant with respect to zinc binding [1]: 8.71

Compound: poloxamer 188
- effect of surfactant on particle formation rate [4]: worse than that of polysorbate 80
- effect of surfactant on destabilising effect of citric acid [5]: notably weaker than that of polysorbate 80

Compound: polyoxyethylene (20) sorbitan monolaurate [Polysorbate 20]
- effect of surfactant on particle formation rate [4]: not effective at all
- effect of surfactant on destabilising effect of citric acid [5]: notably weaker than that of polysorbate 80

Compound: polyoxyethylene (20) sorbitan monooleate [polysorbate 80]
- effect of surfactant on particle formation rate [4]: stabilising effect
- effect of surfactant on rate of particle formation [6]: stabilising effect
- effect of surfactant on rate of particle formation [7]: reduction in the rate of particle formation
- effect of surfactant on rate of particle formation [8]: considerable reduction in the rate of particle formation
- stability after storage at 30° C. for 4 weeks ([3]; visual, SEC and RP-HPLC taken together): almost comparable with the EDTA-free control
- effect of surfactant on destabilising effect of citric acid [5]: appeared to mitigate the destabilising effect
